Source: US20160242416A1, “FUNGICIDAL ISOXAZOLINE CARBINOLS” (E I DU PONT DE NEMOURS AND COMPANY, priority 2015, published 2016)

Tests used:
Botrytis cinerea = experiment: Test B: gray mold, preventive spray on tomato seedlings; settings: 100 = 100% disease control; for Test B rating (% disease control): gray mold on tomato, 0 = no control; for Test B disease control rating: 10 ppm test solution, 0 = no control relative to controls
[1] = system: Puccinia recondita f sp. tritici; experiment: Test F: wheat leaf rust, preventive spray on wheat seedlings; settings: 100 = 100% disease control; for Test F rating (% disease control): wheat leaf rust, 0 = no control; for Test F disease control rating: 10 ppm test solution, 0 = no control relative to controls
Text: General protocol for preparing test solutions for Tests A-G: the test compounds were first dissolved in acetone in an amount equal to 3% of the final volume and then suspended at the desired concentration (in ppm) in acetone and purified water (50/50 mix by volume) containing 250 ppm of the surfactant PEG400 (polyhydric alcohol esters). The resulting test suspensions were then used in Tests A-G. Compounds were sprayed at a concentration of 50 ppm (*) or 10 ppm to the point of run-off on the test plants, the equivalent of a rate of 200 g/ha or 40 g/ha, respectively.
The test solution was sprayed to the point of run-off on wheat seedlings. The following day the seedlings were inoculated with a spore suspension of Puccinia recondita f sp. tritici; (the causal agent of wheat leaf rust) and incubated in a saturated atmosphere at 20° C. for 24 h, and then moved to a growth chamber at 20° C. for 6 days, after which time visual disease ratings were made.
A dash (-) indicates no test results. Compounds with an asterisks (*) were applied at a concentration of 50 ppm, otherwise test solutions were applied at 10 ppm.

Zymoseptoria tritici = experiment: Test E: wheat leaf blotch, preventive spray on wheat seedlings; settings: 100 = 100% disease control; for Test E rating (% disease control): wheat leaf blotch, 0 = no control; for Test E disease control rating: 10 ppm test solution, 0 = no control relative to controls
Stagonospora nodorum = experiment: Test D: wheat glume blotch, preventive spray on wheat seedlings; settings: 100 = 100% disease control; for Test D rating (% disease control): wheat glume blotch, 0 = no control; for Test D disease control rating: 10 ppm test solution, 0 = no control relative to controls
[2] = system: Erysiphe graminis f sp. tritici; experiment: Test G: wheat powdery mildew, preventive spray on wheat seedlings; settings: 100 = 100% disease control; for Test G rating (% disease control): wheat powdery mildew, 0 = no control; for Test G disease control rating: 10 ppm test solution, 0 = no control relative to controls

In the case of `OC(Cn1cncn1)(C1=NOC(c2ccc(F)cc2)C1)c1ccc(Cl)cc1` (single isomer, unassigned) [Compound 159], the “Test B rating (% disease control)” value (Botrytis cinerea; 10 ppm) is reported as 0%, the “Test F rating (% disease control)” value ([1]; 10 ppm) is reported as 0% and the “Test E rating (% disease control)” value (Zymoseptoria tritici; 10 ppm) is reported as 0%. The “Test D rating (% disease control)” value (Stagonospora nodorum; 10 ppm) was 0% and the “Test G rating (% disease control)” value ([2]; 10 ppm) was 97%.
For `OC(Cn1cncn1)(C1=NOC(c2ccc(Cl)cc2)C1)c1ccc(C(F)(F)F)cc1` (single isomer, unassigned) [Compound 105], the “Test B rating (% disease control)” value (Botrytis cinerea; 10 ppm) was 0%, the “Test F rating (% disease control)” value ([1]; 10 ppm) was 100% and the “Test E rating (% disease control)” value (Zymoseptoria tritici; 10 ppm) was 8%. For the same molecule, the “Test D rating (% disease control)” value (Stagonospora nodorum; 10 ppm) was 96% and the “Test G rating (% disease control)” value ([2]; 10 ppm) was 99%.
For `CC(C)(C)C(O)(Cn1cncn1)C1=NOC(COc2ccc(C(F)(F)F)cc2)C1` (single isomer, unassigned) [Compound 88], the “Test B rating (% disease control)” value (Botrytis cinerea; 10 ppm) was 0%, the “Test F rating (% disease control)” value ([1]; 10 ppm) was 100% and the “Test E rating (% disease control)” value (Zymoseptoria tritici; 10 ppm) was 76%. The “Test D rating (% disease control)” value (Stagonospora nodorum; 10 ppm) was 99% and the “Test G rating (% disease control)” value ([2]; 10 ppm) was 99%.
For `OC(Cc1ccccc1)(Cn1cncn1)C1=NOC(c2ccc(Cl)cc2)C1` (single isomer, unassigned) [Compound 121], the “Test B rating (% disease control)” value (Botrytis cinerea; 50 ppm (asterisk)) was 100%, the “Test F rating (% disease control)” value ([1]; 50 ppm (asterisk)) was 100% and the “Test E rating (% disease control)” value (Zymoseptoria tritici; 50 ppm (asterisk)) was 62%. For the same molecule, the “Test D rating (% disease control)” value (Stagonospora nodorum; 50 ppm (asterisk)) was 100% and the “Test G rating (% disease control)” value ([2]; 50 ppm (asterisk)) was 100%.
In the case of `CC(C)(C)CC(O)(Cn1cncn1)C1=NOC(COc2ccc(Cl)cc2)C1` (single isomer, unassigned) [Compound 173], the “Test B rating (% disease control)” value (Botrytis cinerea; 10 ppm) is reported as 0%, the “Test F rating (% disease control)” value ([1]; 10 ppm) is reported as 100% and the “Test E rating (% disease control)” value (Zymoseptoria tritici; 10 ppm) is reported as 6%. For the same molecule, the “Test D rating (% disease control)” value (Stagonospora nodorum; 10 ppm) was 63% and the “Test G rating (% disease control)” value ([2]; 10 ppm) was 97%.
`OC(Cn1cncn1)(C1=NOC(COc2ccc(F)cc2)C1)c1ccc(Cl)cc1` (single isomer, unassigned) [Compound 163] was tested, and the “Test B rating (% disease control)” value (Botrytis cinerea; 10 ppm) was 0%, the “Test F rating (% disease control)” value ([1]; 10 ppm) was 99% and the “Test E rating (% disease control)” value (Zymoseptoria tritici; 10 ppm) was 0%. The “Test D rating (% disease control)” value (Stagonospora nodorum; 10 ppm) was 0% and the “Test G rating (% disease control)” value ([2]; 10 ppm) was 86%.
In the case of `C[S+]([O-])c1ccc(C2CC(C(O)(Cn3cncn3)c3ccc(Cl)cc3)=NO2)cc1` (single isomer, unassigned) [Compound 112], the “Test B rating (% disease control)” value (Botrytis cinerea; 10 ppm) is reported as 0%, the “Test F rating (% disease control)” value ([1]; 10 ppm) is reported as 65% and the “Test E rating (% disease control)” value (Zymoseptoria tritici; 10 ppm) is reported as 80%. The “Test D rating (% disease control)” value (Stagonospora nodorum; 10 ppm) was 0% and the “Test G rating (% disease control)” value ([2]; 10 ppm) was 69%.
In the case of `OC(Cn1cncn1)(C1=NOC(c2ccc(Cl)cc2)C1)c1ccc(F)cc1` (single isomer, unassigned) [Compound 161], the “Test B rating (% disease control)” value (Botrytis cinerea; 10 ppm) is reported as 0%, the “Test F rating (% disease control)” value ([1]; 10 ppm) is reported as 28% and the “Test E rating (% disease control)” value (Zymoseptoria tritici; 10 ppm) is reported as 0%. The “Test D rating (% disease control)” value (Stagonospora nodorum; 10 ppm) was 0% and the “Test G rating (% disease control)” value ([2]; 10 ppm) was 94%.
For `CC(C)(C)C(O)(Cn1cncn1)C1=NOC(Cc2ccc(Br)cc2)C1` (single isomer, unassigned) [Compound 52], the “Test B rating (% disease control)” value (Botrytis cinerea; 10 ppm) was 98%, the “Test F rating (% disease control)” value ([1]; 10 ppm) was 100% and the “Test E rating (% disease control)” value (Zymoseptoria tritici; 10 ppm) was 4%. The “Test D rating (% disease control)” value (Stagonospora nodorum; 10 ppm) was 100% and the “Test G rating (% disease control)” value ([2]; 10 ppm) was 100%.
`OC(Cn1cncn1)(C1=NOC(c2ccc(Cl)cc2)C1)C12CC3CC(CC(C3)C1)C2` (single isomer, unassigned) [Compound 40] was tested, and the “Test B rating (% disease control)” value (Botrytis cinerea; 10 ppm) was 0%, the “Test F rating (% disease control)” value ([1]; 10 ppm) was 55% and the “Test E rating (% disease control)” value (Zymoseptoria tritici; 10 ppm) was 0%. For the same molecule, the “Test D rating (% disease control)” value (Stagonospora nodorum; 10 ppm) was 51% and the “Test G rating (% disease control)” value ([2]; 10 ppm) was 48%.
`OC(Cn1cncn1)(C1=NOC(c2ccc(Br)cc2)C1)c1ccc(Cl)cc1` (single isomer, unassigned) [Compound 178] was tested, and the “Test B rating (% disease control)” value (Botrytis cinerea; 10 ppm) was 0%, the “Test F rating (% disease control)” value ([1]; 10 ppm) was 100% and the “Test E rating (% disease control)” value (Zymoseptoria tritici; 10 ppm) was 91%. For the same molecule, the “Test D rating (% disease control)” value (Stagonospora nodorum; 10 ppm) was 99% and the “Test G rating (% disease control)” value ([2]; 10 ppm) was 100%.
`CC(C)(C)C(O)(Cn1cncn1)C1=NOC(COc2ccc(-n3cc(Cl)cn3)cc2)C1` (centres unmarked) [Compound 31] was tested, and the “Test B rating (% disease control)” value (Botrytis cinerea; 10 ppm) was 0%, the “Test F rating (% disease control)” value ([1]; 10 ppm) was 0% and the “Test E rating (% disease control)” value (Zymoseptoria tritici; 10 ppm) was 0%. For the same molecule, the “Test D rating (% disease control)” value (Stagonospora nodorum; 10 ppm) was 0% and the “Test G rating (% disease control)” value ([2]; 10 ppm) was 100%.
In the case of `CC(C)(C)C(O)(Cn1cncn1)C1=NOC(COc2ccc(Cl)cc2)C1` (stereo not drawn) [Compound 174, α-[5-[(4-chlorophenoxy)methyl]-4,5-dihydro-3-isoxazolyl]-α-(1,1-dimethylethyl)-1H-1,2,4-triazole-1-ethanol], the “Test B rating (% disease control)” value (Botrytis cinerea; 10 ppm) is reported as 58%, the “Test F rating (% disease control)” value ([1]; 10 ppm) is reported as 100% and the “Test E rating (% disease control)” value (Zymoseptoria tritici; 10 ppm) is reported as 12%. For the same molecule, the “Test D rating (% disease control)” value (Stagonospora nodorum; 10 ppm) was 100% and the “Test G rating (% disease control)” value ([2]; 10 ppm) was 100%.
With `CC(C)(C)C(O)(Cn1cncn1)C1=NOC(COc2cccc(Br)c2)C1` (single isomer, unassigned) [Compound 232] the “Test B disease control rating” value (Botrytis cinerea) was 98%, the “Test F disease control rating” value [1] was 100% and the “Test E disease control rating” value (Zymoseptoria tritici) was 41%. The “Test D disease control rating” value (Stagonospora nodorum) was 99% and the “Test G disease control rating” value [2] was 100%.
With `CC(C)(C)C(O)(Cn1cncn1)C1=NOC(CSc2ccc(Cl)cc2)C1` (single isomer, unassigned) [Compound 27] the “Test B rating (% disease control)” value (Botrytis cinerea; 10 ppm) was 51%, the “Test F rating (% disease control)” value ([1]; 10 ppm) was 68% and the “Test E rating (% disease control)” value (Zymoseptoria tritici; 10 ppm) was 0%. For the same molecule, the “Test D rating (% disease control)” value (Stagonospora nodorum; 10 ppm) was 59% and the “Test G rating (% disease control)” value ([2]; 10 ppm) was 89%.
`OC(Cn1cncn1)(C1=NOC(Cn2cc(Br)cn2)C1)c1ccc(Cl)cc1` (single isomer, unassigned) [Compound 38] was tested, and the “Test B rating (% disease control)” value (Botrytis cinerea; 10 ppm) was 0%, the “Test F rating (% disease control)” value ([1]; 10 ppm) was 55% and the “Test E rating (% disease control)” value (Zymoseptoria tritici; 10 ppm) was 1%. The “Test D rating (% disease control)” value (Stagonospora nodorum; 10 ppm) was 0% and the “Test G rating (% disease control)” value ([2]; 10 ppm) was 72%.
For `OC(Cn1cncn1)(C1=NOC(c2ccc(Cl)cc2)C1)c1ccc(C(F)(F)F)cc1` (single isomer, unassigned) [Compound 106], the “Test B rating (% disease control)” value (Botrytis cinerea; 10 ppm) was 0%, the “Test F rating (% disease control)” value ([1]; 10 ppm) was 72% and the “Test E rating (% disease control)” value (Zymoseptoria tritici; 10 ppm) was 0%. The “Test D rating (% disease control)” value (Stagonospora nodorum; 10 ppm) was 0% and the “Test G rating (% disease control)” value ([2]; 10 ppm) was 89%.
For `OC(Cn1cncn1)(C1=NOC(COc2ccccc2)C1)c1ccc(Cl)cc1` (single isomer, unassigned) [Compound 144], the “Test B rating (% disease control)” value (Botrytis cinerea; 10 ppm) was 0%, the “Test F rating (% disease control)” value ([1]; 10 ppm) was 100% and the “Test E rating (% disease control)” value (Zymoseptoria tritici; 10 ppm) was 17%. For the same molecule, the “Test D rating (% disease control)” value (Stagonospora nodorum; 10 ppm) was 99% and the “Test G rating (% disease control)” value ([2]; 10 ppm) was 99%.
`OC(Cn1cncn1)(C1=NOC(c2ccc(Br)cc2)C1)c1ccc(Cl)cc1` (single isomer, unassigned) [Compound 179] was tested, and the “Test B rating (% disease control)” value (Botrytis cinerea; 10 ppm) was 0%, the “Test F rating (% disease control)” value ([1]; 10 ppm) was 100% and the “Test E rating (% disease control)” value (Zymoseptoria tritici; 10 ppm) was 0%. For the same molecule, the “Test D rating (% disease control)” value (Stagonospora nodorum; 10 ppm) was 0% and the “Test G rating (% disease control)” value ([2]; 10 ppm) was 91%.
For `CC(C)(C)C(O)(Cn1cncn1)C1=NOC(Cc2ccc(Br)cc2)C1` (single isomer, unassigned) [Compound 53], the “Test B rating (% disease control)” value (Botrytis cinerea; 10 ppm) was 70%, the “Test F rating (% disease control)” value ([1]; 10 ppm) was 100% and the “Test E rating (% disease control)” value (Zymoseptoria tritici; 10 ppm) was 20%. For the same molecule, the “Test D rating (% disease control)” value (Stagonospora nodorum; 10 ppm) was 99% and the “Test G rating (% disease control)” value ([2]; 10 ppm) was 99%.
With `CC(C)(C)CC(O)(Cn1cncn1)C1=NOC(Cc2ccc(C(F)(F)F)cc2)C1` (single isomer, unassigned) [Compound 226] the “Test B disease control rating” value (Botrytis cinerea) was 0%, the “Test F disease control rating” value [1] was 100% and the “Test E disease control rating” value (Zymoseptoria tritici) was 0%. For the same molecule, the “Test D disease control rating” value (Stagonospora nodorum) was 51% and the “Test G disease control rating” value [2] was 99%.
For `CC(C)(C)C(O)(Cn1cncn1)C1=NOC(COc2ccc(-n3cc(Br)cn3)cc2)C1` (centres unmarked) [Compound 30], the “Test B rating (% disease control)” value (Botrytis cinerea; 10 ppm) was 99%, the “Test F rating (% disease control)” value ([1]; 10 ppm) was 79% and the “Test E rating (% disease control)” value (Zymoseptoria tritici; 10 ppm) was 0%. For the same molecule, the “Test D rating (% disease control)” value (Stagonospora nodorum; 10 ppm) was 0% and the “Test G rating (% disease control)” value ([2]; 10 ppm) was 100%.
